# Patent US20150105252A1, “SUBSTITUTED PYRAZOLES AS HERBICIDES” (E I DU PONT DE NEMOURS AND COMPANY, priority 2013, published 2015)
# Key:
# [1] = tested on: common ragweed; experiment: Test F postemergence; type: in vivo, Ambrosia elation; settings: scale 0 to 100
# Text: (§1) Seeds of plant species selected from corn (Zea mays), soybean (Glycine max), velvetleaf (Abutilon theophrasti), lambsquarters (Chenopodium album), wild poinsettia (Euphorbia heterophylla), pigweed, palmer (palmer pigweed, Amaranthus palmeri), common waterhemp (Amaranthus rudis), surinam grass (Brachiaria decumbens), large crabgrass (Digitaria sanguinalis), crabgrass, Brazil (Brazilian crabgrass, Digitaria horizontalis), fall panicum (Panicum dichotomiflorum), giant foxtail (Setaria faberii), green foxtail (Setaria viridis), goosegrass (Eleusine indica), johnsongrass (Sorghum halepense), common ragweed (Ambrosia elation), barnyardgrass (Echinochloa crus-galli), southern sandbur (Cenchrus echinatus), arrowleaf sida (Sida rhombifolia), Italian ryegrass (Lolium multiflorum), dayflower, VA (Virginia (VA) dayflower, Commelina virginica), field bindweed (Convolvulus arvensis), cocklebur (common cocklebur, Xanthium strumarium), morningglory (Ipomoea coccinea), nightshade (eastern black nightshade, Solanum ptycanthum), kochia (Kochia scoparia), yellow nutsedge (Cyperus esculentus), and hairy beggarticks (Bidens pilosa), were planted into a silt loam soil and treated preemergence with test chemicals formulated in a non-phytotoxic solvent mixture which included a surfactant.
# (§2) At the same time, plants from these crop and weed species and also horseweed (Canada horseweed, Conyza canadensis), smartweed (ladysthumb smartweed, Polygonum persicaria), waterhemp_RES1, (ALS & Triazine resistant common waterhemp, Amaranthus rudis), and waterhemp_RES2, (ALS & HPPD resistant common waterhemp, Amaranthus rudis) were treated with postemergence applications of test chemicals formulated in the same manner. Plants ranged in height from 2 to 18 cm for postemergence treatments (1- to 4-leaf stage). Treated plants and controls were maintained in a greenhouse for 14 to 21 days, after which time all species were compared to controls and visually evaluated. Plant response ratings, summarized in Table F, are based on a scale of 0 to 100 where 0 is no effect and 100 is complete control. A dash (-) response means no test result.
# [2] = tested on: southern sandbur; experiment: Test F postemergence; type: in vivo, Cenchrus echinatus; settings: scale 0 to 100
# Text: as §1, §2
# [3] = tested on: Italian ryegrass; experiment: Test F postemergence; type: in vivo, Lolium multiflorum; settings: scale 0 to 100
# Text: as §1, §2
# [4] = tested on: foxtail, green; experiment: Test E preemergence; type: in vivo, Setaria viridis; settings: 21 days, scale 0 to 100
# Text: (§3) Seeds of plant species selected from bermudagrass (Cynodon dactylon), Surinam grass (Brachiaria decumbens), crabgrass, large (large crabgrass, Digitaria sanguinalis), crabgrass, naked (naked crabgrass, Digitaria nuda), foxtail, green (green foxtail, Setaria viridis), johnsongrass (Sorghum halepense), kochia (Kochia scoparia), morningglory (pitted morningglory, Ipomoea lacunosa), nutsedge, purple (purple nutsedge, Cyperus rotundus), ragweed (common ragweed, Ambrosia elation), mustard, black (black mustard, Brassica nigra), guineagrass (Panicum maximum), dallisgrass (Paspalum dilatatum), barnyardgrass (Echinochloa crus-galli), sandbur (southern sandbur, Cenchrus echinatus), sowthistle (common sowthistle, Sonchus oleraceous), ryegrass, Italian (Italian ryegrass, Lolium multiflorum), signalgrass (broadleaf signalgrass, Brachiaria platyphylla), dayflower, VA (Virginia (VA) dayflower, Commelina virginica), bluegrass (annual bluegrass, Poa annua), quackgrass (Elytrigia repens), mallow (common mallow, Malva sylvestris), buckwheat, wild (wild buckwheat, Polygonum convolvulus), leafy spurge (Euphorbia esula), common chickweed (Stellaria media), wild poinsettia (Euphorbia heterophylla), pigweed, palmer (palmer pigweed, Amaranthus palmeri), and pigweed (redroot pigweed, Amaranthus retroflexus) were planted into a blend of loam soil and sand and treated preemergence with test chemicals formulated in a non-phytotoxic solvent mixture which included a surfactant.
# (§4) Treated plants and controls were maintained in a greenhouse for 21 days, after which time all species were compared to controls and visually evaluated. Plant response ratings, summarized in Table E, are based on a scale of 0 to 100 where 0 is no effect and 100 is complete control. A dash (-) response means no test result.
# [5] = tested on: morningglory; experiment: Test E preemergence; type: in vivo, Ipomoea lacunosa; settings: 21 days, scale 0 to 100
# Text: as §3, §4
# [6] = tested on: dayflower, VA; experiment: Test E preemergence; type: in vivo, Commelina virginica; settings: 21 days, scale 0 to 100
# Text: as §3, §4
# [7] = tested on: quackgrass; experiment: Test E preemergence; type: in vivo, Elytrigia repens; settings: 21 days, scale 0 to 100
# Text: as §3, §4
smiles,measurement,setting,value
CCOc1cc(C(=O)NC(C)C)nn1Cc1ccnc(C(F)(F)F)c1 [Compound 188],"Plant response rating, Common Ragweed","[1]; Postemergence, 31 g ai/ha",50
same,"Plant response rating, Common Ragweed","[1]; Postemergence, 125 g ai/ha",70
same,"Plant response rating, Common Ragweed","[1]; Postemergence, 250 g ai/ha",85
same,"Plant response rating, Common Ragweed","[1]; postemergence, 62 g ai/ha",60
same,"Plant response rating, Common Ragweed","[1]; postemergence, 500 g ai/ha",98
same,"Plant response rating, Southern Sandbur","[2]; Postemergence, 31 g ai/ha",0
same,"Plant response rating, Southern Sandbur","[2]; Postemergence, 125 g ai/ha",50
same,"Plant response rating, Southern Sandbur","[2]; Postemergence, 250 g ai/ha",70
same,"Plant response rating, Southern Sandbur","[2]; postemergence, 62 g ai/ha",20
same,"Plant response rating, Southern Sandbur","[2]; postemergence, 500 g ai/ha",90
same,"Plant response rating, Italian Ryegrass","[3]; Postemergence, 31 g ai/ha",5
same,"Plant response rating, Italian Ryegrass","[3]; Postemergence, 125 g ai/ha",30
same,"Plant response rating, Italian Ryegrass","[3]; Postemergence, 250 g ai/ha",60
same,"Plant response rating, Italian Ryegrass","[3]; postemergence, 62 g ai/ha",10
same,"Plant response rating, Italian Ryegrass","[3]; postemergence, 500 g ai/ha",85
CCOc1cc(C(=O)NC2CC2)nn1Cc1ccnc(C(F)(F)F)c1 [Compound 189],"Plant response rating, Foxtail, Green",[4]; 4 g ai/ha,0
same,"Plant response rating, Foxtail, Green",[4]; 8 g ai/ha,20
same,"Plant response rating, Foxtail, Green",[4]; 16 g ai/ha,100
same,"Plant response rating, Foxtail, Green",[4]; 31 g ai/ha,100
same,"Plant response rating, Foxtail, Green",[4]; 62 g ai/ha,100
same,"Plant response rating, Morningglory",[5]; 4 g ai/ha,0
same,"Plant response rating, Morningglory",[5]; 8 g ai/ha,30
same,"Plant response rating, Morningglory",[5]; 16 g ai/ha,90
same,"Plant response rating, Morningglory",[5]; 31 g ai/ha,100
same,"Plant response rating, Morningglory",[5]; 62 g ai/ha,100
same,"Plant response rating, Dayflower, VA",[6]; 4 g ai/ha,0
same,"Plant response rating, Dayflower, VA",[6]; 8 g ai/ha,30
same,"Plant response rating, Dayflower, VA",[6]; 16 g ai/ha,90
same,"Plant response rating, Dayflower, VA",[6]; 31 g ai/ha,100
same,"Plant response rating, Dayflower, VA",[6]; 62 g ai/ha,100
same,"Plant response rating, Quackgrass",[7]; 4 g ai/ha,0
same,"Plant response rating, Quackgrass",[7]; 8 g ai/ha,0
same,"Plant response rating, Quackgrass",[7]; 16 g ai/ha,35
same,"Plant response rating, Quackgrass",[7]; 31 g ai/ha,75
same,"Plant response rating, Quackgrass",[7]; 62 g ai/ha,100
